Some test systems named below: MOLT-4 leukemia; OVCAR-8 ovarian; BT-549 breast; OVCAR-4 ovarian; UO-31 renal; IGROV1 ovarian; SR leukemia; HCT-15 colon; HS 578T breast; NCI-H23 lung.
Holding throughout (test): growth of human tumour cells (NCI), 48 h

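Tested at 5 concentrations; 48 h exposure; 96-well plates; endpoints linearly interpolated, else capped at highest concentration. GI50 marks 50% less growth. TGI: concentration producing complete growth inhibition.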

In the case of `CCCN(CCC)c1ccc(/C=C/c2ccc3cc(OCC)ccc3n2)cc1`, the GI50 in the experiment with MOLT-4 leukemia is greater than 100 µM; in the experiment on OVCAR-8 ovarian, 99.2 µM; with BT-549 breast, greater than 100 µM; in the experiment with OVCAR-4 ovarian, 72.7 µM; in the experiment with UO-31 renal it was greater than 100 µM; in the experiment on IGROV1 ovarian, greater than 100 µM. For the same compound, the GI50 is 13.8 µM in the experiment on SR leukemia, 9.7 µM with HCT-15 colon, greater than 100 µM with HS 578T breast and 36.7 µM in the experiment on NCI-H23 lung. In addition, the TGI in the experiment on MOLT-4 leukemia, in the experiment with OVCAR-8 ovarian, with BT-549 breast, in the experiment on OVCAR-4 ovarian, in the experiment with UO-31 renal and in the experiment on IGROV1 ovarian was greater than 100 µM in each case. Also, the TGI with SR leukemia, with HCT-15 colon, in the experiment on HS 578T breast and in the experiment with NCI-H23 lung was greater than 100 µM each time.
As for `C=C1C(=O)O[C@H]2[C@H]1CC/C(COC(=O)c1cc3ccccc3o1)=C\CC[C@@]1(C)O[C@@H]21`, the GI50 was 1.77 µM in the experiment with MOLT-4 leukemia; 2.43 µM in the experiment on OVCAR-8 ovarian; 1.48 µM with BT-549 breast; 1.56 µM in the experiment with OVCAR-4 ovarian; 1.46 µM in the experiment with UO-31 renal; 1.39 µM in the experiment on IGROV1 ovarian. The GI50 in the experiment on SR leukemia was 1.15 µM; in the experiment on HCT-15 colon, 1.07 µM; in the experiment with HS 578T breast it was 2.91 µM; in the experiment on NCI-H23 lung, 1.98 µM. Also, the TGI in the experiment on MOLT-4 leukemia stood at 6.06 µM; in the experiment with OVCAR-8 ovarian, 7.63 µM; in the experiment on BT-549 breast, 3.29 µM; in the experiment with OVCAR-4 ovarian, 3.98 µM; in the experiment with UO-31 renal, 2.79 µM; with IGROV1 ovarian, 3.23 µM. In addition, the TGI in the experiment on SR leukemia was found to be 5.33 µM; with HCT-15 colon it was 2.86 µM; in the experiment on HS 578T breast, 10.9 µM; in the experiment with NCI-H23 lung it was 4.75 µM.
In the case of `C=C(C)[C@@H]1CC[C@]2(C(=O)O)CC[C@]3(C)[C@H](CC[C@@H]4[C@@]5(C)CCC(NC(=O)c6cccc(OC(C)=O)c6OC(C)=O)C(C)(C)[C@@H]5CC[C@]43C)[C@@H]12` (some centres undefined), the GI50 in the experiment with MOLT-4 leukemia was 0.497 µM; with OVCAR-8 ovarian it was 0.996 µM; in the experiment with BT-549 breast it was 1.18 µM; in the experiment with OVCAR-4 ovarian it was 0.507 µM; in the experiment with UO-31 renal, 0.283 µM; with IGROV1 ovarian, 0.604 µM. Moreover, the GI50 with SR leukemia was 0.568 µM; in the experiment with HCT-15 colon, 0.418 µM; in the experiment on HS 578T breast it was 0.566 µM; with NCI-H23 lung it was 0.615 µM. Further, the TGI with MOLT-4 leukemia is 2.85 µM; in the experiment with OVCAR-8 ovarian, 3.24 µM; with BT-549 breast it was 3.67 µM; in the experiment with OVCAR-4 ovarian it was greater than 100 µM; in the experiment on UO-31 renal it was 1.43 µM; in the experiment on IGROV1 ovarian it was 5.34 µM. In addition, the TGI amounted to 3.14 µM in the experiment with SR leukemia, 3.73 µM in the experiment with HCT-15 colon, 4.28 µM in the experiment on HS 578T breast and 4.62 µM with NCI-H23 lung.
Regarding `O=C(O)CCCSc1ccccc1`, the TGI in the experiment on MOLT-4 leukemia, in the experiment on OVCAR-8 ovarian, in the experiment on BT-549 breast, in the experiment on OVCAR-4 ovarian, with UO-31 renal and in the experiment on IGROV1 ovarian was greater than 100 µM each time. Besides, the TGI with SR leukemia, with HCT-15 colon, in the experiment with HS 578T breast and in the experiment with NCI-H23 lung was greater than 100 µM each time.
For the compound `COc1cc(-c2ccc(-c3ccc(C(=N)N)nc3)s2)cc(OC)c1OC`, the GI50 is 2.53 µM in the experiment with MOLT-4 leukemia; 2.3 µM in the experiment with OVCAR-8 ovarian; 1.67 µM with BT-549 breast; 2.69 µM with OVCAR-4 ovarian; 1.88 µM in the experiment on UO-31 renal; 2.63 µM with IGROV1 ovarian. Besides, the GI50 with SR leukemia is 2.48 µM; in the experiment with HCT-15 colon, 2.18 µM; in the experiment with HS 578T breast, 2.59 µM; in the experiment on NCI-H23 lung, 6.4 µM. Moreover, the TGI came out at 6.9 µM with MOLT-4 leukemia; 5.23 µM with OVCAR-8 ovarian; 3.49 µM in the experiment with BT-549 breast; 10.4 µM in the experiment with OVCAR-4 ovarian; 3.4 µM with UO-31 renal; 6.2 µM in the experiment with IGROV1 ovarian. In addition, the TGI is 6.41 µM in the experiment on HCT-15 colon, 8.52 µM in the experiment with HS 578T breast and 22.6 µM in the experiment on NCI-H23 lung.
`Nc1c2c(c(O)c3c1=C(CO)C=N3)=NCCS2`: the GI50 in the experiment with MOLT-4 leukemia is 0.223 µM; in the experiment on OVCAR-8 ovarian it was 0.307 µM; in the experiment with BT-549 breast, 0.175 µM; in the experiment with OVCAR-4 ovarian, 0.136 µM; in the experiment on UO-31 renal, 0.161 µM; with IGROV1 ovarian it was 0.209 µM. Further, the GI50 in the experiment on SR leukemia is 0.235 µM; with HCT-15 colon, 0.166 µM; with HS 578T breast, 0.318 µM; with NCI-H23 lung, 0.0971 µM. Also, the TGI in the experiment on MOLT-4 leukemia is 0.541 µM; in the experiment on OVCAR-8 ovarian it was 0.88 µM; in the experiment on BT-549 breast, 0.317 µM; in the experiment on OVCAR-4 ovarian, 0.264 µM; in the experiment with UO-31 renal, 0.345 µM; with IGROV1 ovarian it was 0.535 µM. Moreover, the TGI in the experiment on SR leukemia turned out to be 0.774 µM; in the experiment with HCT-15 colon, 0.381 µM; in the experiment on HS 578T breast, 0.812 µM; with NCI-H23 lung it was 0.352 µM.
In the case of `C#CC1(OC(C)=O)CCC2C3CC=C4C=C(OC(C)=O)CCC4(C)C3CCC21C` (centres undefined), the TGI in the experiment with MOLT-4 leukemia came to 33.3 µM; in the experiment on OVCAR-8 ovarian it was 46.3 µM; in the experiment on BT-549 breast it was 83.1 µM; in the experiment with OVCAR-4 ovarian, 72.2 µM; in the experiment with UO-31 renal, 54.4 µM; with IGROV1 ovarian it was 35.9 µM. In addition, the TGI with SR leukemia is 35 µM; in the experiment on HCT-15 colon, 62.5 µM; with HS 578T breast, greater than 100 µM; in the experiment on NCI-H23 lung, 47.1 µM.
In the case of `C=C1C(C2(C)C(OC(C)=O)CC(=O)OC(C)(COC(C)=O)C2CC(=O)OC)C(OC=O)C(OC(=O)C(O)C(C)CC)C2(C)C(c3ccoc3)CC(=O)C12O` (centres undefined), the TGI in the experiment with MOLT-4 leukemia was greater than 100 µM; in the experiment with OVCAR-8 ovarian, greater than 100 µM; in the experiment with BT-549 breast, greater than 30.5 µM; in the experiment on OVCAR-4 ovarian it was greater than 100 µM; in the experiment on UO-31 renal, 18.1 µM; with IGROV1 ovarian, greater than 100 µM. The TGI in the experiment on SR leukemia, with HCT-15 colon, in the experiment on HS 578T breast and in the experiment with NCI-H23 lung was greater than 100 µM each time.

The values are drawn from PubChem BioAssay (NCI).
